Measured values: patent US20250108100A1, “C-TERMINAL FRAGMENT OF APOLIPOPROTEIN E AND APPLICATION THEREOF IN INHIBITING y-SECRETASE ACTIVITY” (SYNPHATEC (SHANGHAI) BIOPHARMACEUTICAL TECHNOLOGY CO., LTD., priority 2022, published 2025)
“Also recorded” adds a separate entry of the source.

Columns and labels:
[1] = tested on: γ-secretase (PS1, PS2) knockout HEK 293T cells; assay: PS1 KO, PS2 KO and PS1/2 dKO HEK 293T cell lines: α-CTF and Aβ40; type: cell-based, human; conditions: PS1 and PS2 double knockout HEK 293T cells
Experimental: • a) A plasmid expressing the target protein in mammalian cells was constructed, and the protein expression promoter is CAG. • b) The target protein was expressed in HEK 293T cell line. Cells were subcultured one day before transfection, and transfection was performed when the degree of cell adhesion reached 70%-80%. The transfection reagent was lipofectamine2000 (ThermoFisher). • c) 4-6 hours post transfection, the medium were replaced with fresh cell culture medium. • d) 36-48 hours post transfection, the cells were lysed (10% 1M tris-HCl (pH=6.8), 4% SDS, 20% glycerol, 0.01% bromophenol blue), and the protein samples were collected and used for Western blot or stored in a −80° C. freezer. • e) Polyacrylamide gel electrophoresis. Before protein loading, the protein was boiled at 98° C. for 10 min, and then centrifuged at 12000 rpm for 10 min. Electrophoresis: 80V for the upper stacking gel; 120V for the lower separating gel. • f) Protein transfer. […]

wild-type mice = assay: Endogenous Aβ40 in brain of wild-type mice after AAV neuronal expression (ELISA); type: in vivo, mouse; conditions: hSyn promoter, vs GFP

ApoE2: human apolipoprotein E2, full-length 299 amino acid residues, SEQ ID NO: 12
α-CTF in PS1/2 dKO cells [1]: did not further increase α-CTF levels | endogenous Aβ40 in the brain (wild-type mice): also reduce endogenous Aβ40 production; also recorded: reduced endogenous Aβ40 in the brain of mice
